Patent US8158646B2, “Antifungal and antiparasitic indoloquinoline derivates” (Florida Agricultural and Mechanical University, priority 2006, dated 2012)
Converted amounts (≈) assume the structure as drawn. Read-outs that look alike come from different tables or passages of the source. Marks after values point to notes of the source that are not given here.

Experiments:
[1] = system: Cryptococcus neoformans ATCC 90113; experiment: Antifungal susceptibility testing (modified NCCLS), Cn; assay type: cell-based; settings: for IC50: ATCC90113, NA not defined in Table 1, read-out: IC50 Cn; for IC50 Cn: NA not defined in Table 1
Protocol: (§1) Compounds were evaluated in vitro against a panel of microorganisms, including Candida albicans ATCC 90028 (Ca), C. krusei ATCC 6258 (Ck), Cryptococcus neoformans ATCC 90113 (Cn), Staphylococcus aureus ATCC 29213 (Sa), methicillin-resistant S. aureus ATCC 43300 (MRSA), Pseudomonas aeruginosa ATCC 27853 (Pa), Aspergilllus fumigatus ATCC 90906 (Aj), and Mycobacterium intracellulare ATCC 23068 (Mi) as previously reported [Guoyi, M.; Khan, S.; Jacob, M. R; Tekwani, B. L.; Li, Z.; Pasco, D. S.; Walker, L. A.; Khan, 1. A.; Antimicrob Agents Chemother, 2004, 48, 4450-4452]. All organisms were obtained from the American Type Culture Collection (Manassas, Va.). Susceptibility testing was performed using a modified version of the NCCLS methods [a) National Committee for Clinical Laboratory Standards. 2000. Methods for dilution antimicrobial susceptibility tests for bacteria that grow aerobically. M7-A5. National Committee for Clinical Laboratory Standards, Wayne, Pa. b) National Committee for Clinical Laboratory Standards, 1997, Reference method for broth dilution antifungal susceptibility testing of yeasts. Approved standard M27-A. National Committee for Clinical Laboratory Standards, Wayne, Pa. c) National Committee for Clinical Laboratory Standards. 2000. Susceptibility testing of mycobacteria, nocardia, and other aerobic actinomycetes, 2nd ed. Tentative standard M24- T2. National Committee for Clinical Laboratory Standards, Wayne, Pa.] for all organisms except for M intracellulare, for which the modified Alamar blue procedure described by Franzblau et al [1998. J Clin Microbiol, 36, 362-366] was followed. Briefly, samples (dissolved in DMSO) were serially diluted by using 0.9% saline and transferred in duplicate to 96-well microplates. Microbial inocula were prepared after comparison of the absorbance (at 630 nm) of cell suspensions to the 0.5 McFarland standard and dilution of the suspensions in broth (Sabouraud dextrose and cation-adjusted Mueller-Hinton broth [Difco] for the fungi and bacteria, respectively, and 5% Alamar blue [BioSource international] in Middlebrook 7H9 broth with oleic acid-albumin-dextrose-catalase enrichment for M intracellulare) to afford recommended inoculum sizes. Microbial inocula were added to the samples to achieve a final volume of 200 μl and final sample concentrations starting with 100 μg/ml. Growth, solvent, and medium controls were included on each test plate. The plates were read at either 630 nm or excitation and emission wavelengths of 544 and 590 nm (for Mi) prior to and after incubation. Percent growth was calculated and plotted with the concentration tested to afford the concentration that inhibits 50% of growth (IC50). Antimalarial and cytotoxicity testing were conducted in a similar manner as previously reported [a) Muhammad, 1.; Bedir, E.; Khan, S. I.; Tekwani, B. L.; Khan, I. A.; Takamatsu, S.; Pelletier, 1.; Walker, L. A. J Nat Prod. 2004, 67, 772-7. b) Muhammad, 1.; Dunbar, D. C.; Khan, S. 1.; Tekwani, B. L.; Bedir, E.; Takamatsu, S.; Ferreira, D, Walker L A., J Nat Prod. 2003, 66, 962-7].

[2] = system: Plasmodium falciparum W2 Clone; experiment: Antimalarial testing, W2 clone; assay type: cell-based; settings: W2 Clone; for IC50: Plasmodium falciparum, NA = Not active up to 20 μg/ml, read-out: Plasmodium falciparum IC50 Pf (W2); for SI (W2): SI = IC50 (vero cells)/IC50 (Pf)
Protocol: as §1

Vero cells = experiment: Cytotoxicity to mammalian cells (Vero); assay type: cell-based
Protocol: (§2) All organisms were obtained from the American Type Culture Collection (Manassas, Va.). Susceptibility testing was performed using a modified version of the NCCLS methods [a) National Committee for Clinical Laboratory Standards. 2000. Methods for dilution antimicrobial susceptibility tests for bacteria that grow aerobically. M7-A5. […] Approved standard M27-A. National Committee for Clinical Laboratory Standards, Wayne, Pa. c) National Committee for Clinical Laboratory Standards. 2000. Susceptibility testing of mycobacteria, nocardia, and other aerobic actinomycetes, 2nd ed. Tentative standard M24- T2. […] Briefly, samples (dissolved in DMSO) were serially diluted by using 0.9% saline and transferred in duplicate to 96-well microplates. Microbial inocula were prepared after comparison of the absorbance (at 630 nm) of cell suspensions to the 0.5 McFarland standard and dilution of the suspensions in broth (Sabouraud dextrose and cation-adjusted Mueller-Hinton broth [Difco] for the fungi and bacteria, respectively, and 5% Alamar blue [BioSource international] in Middlebrook 7H9 broth with oleic acid-albumin-dextrose-catalase enrichment for M intracellulare) to afford recommended inoculum sizes. Microbial inocula were added to the samples to achieve a final volume of 200 μl and final sample concentrations starting with 100 μg/ml. Growth, solvent, and medium controls were included on each test plate. […] Antimalarial and cytotoxicity testing were conducted in a similar manner as previously reported [a) Muhammad, 1.; Bedir, E.; Khan, S. I.; Tekwani, B. L.; Khan, I. A.; Takamatsu, S.; Pelletier, 1.; Walker, L. A. J Nat Prod.

[3] = system: Pseudomonas aeruginosa ATCC 27853; experiment: Antimicrobial susceptibility testing, Pa; assay type: cell-based; settings: ATCC27853, NA = Not active up to 20 μg/ml
Protocol: (§3) Compounds were evaluated in vitro against a panel of microorganisms, including Candida albicans ATCC 90028 (Ca), C. krusei ATCC 6258 (Ck), Cryptococcus neoformans ATCC 90113 (Cn), Staphylococcus aureus ATCC 29213 (Sa), methicillin-resistant S. aureus ATCC 43300 (MRSA), Pseudomonas aeruginosa ATCC 27853 (Pa), Aspergilllus fumigatus ATCC 90906 (Aj), and Mycobacterium intracellulare ATCC 23068 (Mi) as previously reported [Guoyi, M.; Khan, S.; Jacob, M. R; Tekwani, B. L.; Li, Z.; Pasco, D. S.; Walker, L. A.; Khan, 1. A.; Antimicrob Agents Chemother, 2004, 48, 4450-4452]. All organisms were obtained from the American Type Culture Collection (Manassas, Va.). Susceptibility testing was performed using a modified version of the NCCLS methods [a) National Committee for Clinical Laboratory Standards. 2000. […] Microbial inocula were prepared after comparison of the absorbance (at 630 nm) of cell suspensions to the 0.5 McFarland standard and dilution of the suspensions in broth (Sabouraud dextrose and cation-adjusted Mueller-Hinton broth [Difco] for the fungi and bacteria, respectively, and 5% Alamar blue [BioSource international] in Middlebrook 7H9 broth with oleic acid-albumin-dextrose-catalase enrichment for M intracellulare) to afford recommended inoculum sizes. […] The plates were read at either 630 nm or excitation and emission wavelengths of 544 and 590 nm (for Mi) prior to and after incubation. […]

[4] = system: methicillin-resistant S. aureus ATCC 43300; experiment: Antimicrobial susceptibility testing, MRSA; assay type: cell-based, Staphylococcus aureus; settings: Methicillin-Resistant Staphylococcus aureus; read-out: IC50 MRSA
Protocol: as §1, with “Antimalarial and cytotoxicity testing were conducted in a similar manner as previously reported [a) Muhammad, 1.; Bedir, E.; Khan, S. I.; Tekwani, B. L.; Khan, I. A.; Takamatsu, S.; Pelletier, 1.; Walker, L. A. J Nat Prod. 2004, 67, 772-7. b) Muhammad, 1.; Dunbar, D. C.; Khan, S. 1.; Tekwani, B. L.; Bedir, E.; Takamatsu, S.; Ferreira, D, Walker L A., J Nat Prod. 2003, 66, 962-7].” left out

[5] = system: Plasmodium falciparum D6 Clone; experiment: Antimalarial testing, D6 clone; assay type: cell-based; settings: D6 Clone; for IC50: Plasmodium falciparum, read-out: Plasmodium falciparum IC50 Pf (D6); for SI (D6): SI = IC50 (vero cells)/IC50 (Pf)
Protocol: as §2

[6] = system: Candida albicans ATCC 90028; experiment: Antifungal susceptibility testing (modified NCCLS), Ca; assay type: cell-based; settings: for IC50: ATCC90028, NA not defined in Table 1, read-out: IC50 Ca; for IC50 Ca: NA not defined in Table 1
Protocol: as §1

[7] = system: Aspergillus fumigatus ATCC 90906; experiment: Antimicrobial susceptibility testing, Af; assay type: cell-based; settings: for IC50: ATCC90906, read-out: IC50 Af
Protocol: as §1, with “Antimalarial and cytotoxicity testing were conducted in a similar manner as previously reported [a) Muhammad, 1.; Bedir, E.; Khan, S. I.; Tekwani, B. L.; Khan, I. A.; Takamatsu, S.; Pelletier, 1.; Walker, L. A. J Nat Prod. 2004, 67, 772-7. b) Muhammad, 1.; Dunbar, D. C.; Khan, S. 1.; Tekwani, B. L.; Bedir, E.; Takamatsu, S.; Ferreira, D, Walker L A., J Nat Prod. 2003, 66, 962-7].” left out

[8] = system: Mycobacterium intracellulare ATCC 23068; experiment: Modified Alamar blue procedure, Mi; assay type: cell-based; settings: ATCC23068, read-out: IC50 Mi
Protocol: as §1, with “Antimalarial and cytotoxicity testing were conducted in a similar manner as previously reported [a) Muhammad, 1.; Bedir, E.; Khan, S. I.; Tekwani, B. L.; Khan, I. A.; Takamatsu, S.; Pelletier, 1.; Walker, L. A. J Nat Prod. 2004, 67, 772-7. b) Muhammad, 1.; Dunbar, D. C.; Khan, S. 1.; Tekwani, B. L.; Bedir, E.; Takamatsu, S.; Ferreira, D, Walker L A., J Nat Prod. 2003, 66, 962-7].” left out

[9] = system: Staphylococcus aureus ATCC 29213; experiment: Antimicrobial susceptibility testing, Sa; assay type: cell-based; settings: ATCC29213
Protocol: as §3

C. krusei ATCC 6258 = experiment: Antimicrobial susceptibility testing, Ck; assay type: cell-based, Candida krusei; settings: Candida krusei
Protocol: as §3, with “2000. Methods for dilution antimicrobial susceptibility tests for bacteria that grow aerobically. M7-A5. National Committee for Clinical Laboratory Standards, Wayne, Pa. b) National Committee for Clinical Laboratory Standards, 1997, Reference method for broth dilution antifungal susceptibility testing of yeasts. Approved standard M27-A. National Committee for Clinical Laboratory Standards, Wayne, Pa. c) National Committee for Clinical Laboratory Standards. 2000. Susceptibility testing of mycobacteria, nocardia, and other aerobic actinomycetes, 2nd ed. Tentative standard M24- T2.” for “2000.”

Molecule | IC50 [1] [µg/mL] | IC50 [2] [µg/mL] | SI (W2) [2] | Cytotoxicity (Vero) TC50 (Vero cells; African green monkey) [ng/mL] | no cytotoxicity up to (concentration) (Vero cells; African green monkey) [µg/mL] | IC50 [4] [µg/mL] | IC50 [5] [µg/mL] | SI (D6) [5] | IC50 [6] [µg/mL] | IC50 [7] [µg/mL] | IC50 [8] [µg/mL] | melting point [°C] | IC50 Cn [1] | IC50 Ca [6] [µg/mL] | also measured
c1ccc2c(c1)cc1[nH]c3ccccc3c1[n+]2CCCCC[n+]1c2ccccc2cc2[nH]c3ccccc3c21 [Compound 10] | 1.5 | 1 | >23.8 | >23800 | > 23.8 | 3 | 1.3 | >18.3 | > 50 | 20 | 7 |  |  |  | IC50 [3]: 1.5 µg/mL; IC50 [9]: 3 µg/mL
C[n+]1c2ccccc2cc2c1c1ccccc1n2CCCCCn1c2ccccc2c2c1cc1ccccc1[n+]2C [Compound 12] | 2 | 0.14 | >170 | >23800 | > 23.8 | 6 | 0.26 | >91.5 | 2 | 20 | 15 |  |  |  | IC50 (C. krusei ATCC 6258; Pichia kudriavzevii, ATCC6258, read-out: IC50 Ck): 15 µg/mL
c1ccc2c(c1)cc1[nH]c3ccccc3c1[n+]2CCCCC[n+]1c2ccccc2cc2[nH]c3ccccc3c21 (hydrate or solvate) [Compound 10] |  |  |  |  |  |  |  |  |  |  |  | 256 to 258 |  |  | 
cryptolepine [Compound 2b, reference compound] |  |  |  |  |  |  |  |  |  |  |  |  | 15.6^d μg/ml | 0.8 to 180 | 
C[C@@H]1[C@H](O)[C@@H](C)/C=C/C=C/C=C/C=C/C=C/C=C/C=C/[C@H](O[C@@H]2O[C@H](C)[C@@H](O)[C@H](N)[C@@H]2O)C[C@@H]2O[C@](O)(C[C@@H](O)C[C@@H](O)[C@H](O)CC[C@@H](O)C[C@@H](O)CC(=O)O[C@H]1C)C[C@H](O)[C@H]2C(=O)O [Amphotericin B, reference compound] |  |  |  |  |  |  |  |  |  |  |  |  | 0.6 µg/mL (≈ 0.649 µM) | 0.1 (≈ 0.108 µM) | Cytotoxicity (Vero) TC50 (Vero cells): 6500 ng/mL; IC50 Af [7]: 0.31 µg/mL (≈ 0.335 µM); IC50 Ck (C. krusei ATCC 6258): 0.60 µg/mL (≈ 0.649 µM)
C[n+]1c2ccccc2cc2c1c1ccccc1n2CCCCCn1c2ccccc2c2c1cc1ccccc1[n+]2C (hydrate or solvate) [Compound 12] |  |  |  |  |  |  |  |  |  |  |  | 238 to 240 |  |  | 
